Laboratory results taken from paper PMC6753678, “Fueling Open Innovation for Malaria Transmission-Blocking Drugs: Hundreds of Molecules Targeting Early Parasite Mosquito Stages” (Frontiers in Microbiology, 2019).
Read-outs that look alike come from different tables or passages of the source.

Key:
[1] = system: 3D7-strain P. falciparum asexual parasites; assay: P. falciparum asexual growth inhibition assay (Pf GIA); format: cell-based, Plasmodium falciparum; settings: dose response confirmation; read-out: Pf asexual growth inhibition assays IC50
Procedure, shortened: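 0.25% parasitemia, 2% Hct, RPMI/HEPES/hypoxanthine/5% Albumax; compound dose response, 72 h, 37°C, 5% CO2, 5% O2, 90% N2. Freeze-thaw, then LDH assay, A650. % inhibition vs chloroquine (50 μM)/DMSO, mean of 3 independent runs.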

[2] = system: HepG2 cells; assay: HepG2 cytotoxicity assay; settings: for Unified cytotox: HepG2 values of the three screens unified; for IC50: read-out: HepG2 cytotoxicity assay IC50, dose response confirmation
Procedure, shortened: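 Percent inhibition derived from fluorescent viability readout, normalised to DMSO (negative) and 50 μM doxorubicin (positive). Compound incubation lasted 48 h at 37°C, 5% CO2, with 2,500 HepG2 cells/well in MEM plus 10% FBS and 1% NEAA.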

[3] = system: P. berghei ookinete development; settings: for Is compound selective in assay? Pb ODA active?: 1: YES, 0: NO; for % inhibition, Replicate A / % inhibition, Replicate B: primary screen at 1 μM
[4] = system: P. falciparum female gametocytes; set-up: method as in Miguel-Blanco et al 2017; settings: ref Miguel-Blanco et al 2017; read-out: Pf FGAA IC50; cited from earlier work
[5] = system: HepG2 cells; settings: HepG2; ref Miguel-Blanco et al 2017; cited from earlier work
[6] = system: P. falciparum female gametocytes; assay: P. falciparum female gametogenesis assay (Pf FGAA); settings: 1: YES; 0: NO
[7] = read-out: Pb ODA IC50, this manuscript
[8] = read-out: Pb Ookinete development assay IC50, dose response confirmation

| Compound | IC50 [1] [nM] | HepG2 cytoxicity (Pb ODA, this manuscript) [2] [µM] | Unified cytotox [2] [µM] | IC50 [2] [nM] | Is compound selective in assay? Pb ODA active? [3] | % inhibition, Replicate A [3] [%] | % inhibition, Replicate B [3] [%] | IC50 [3, 7] [nM] | IC50 [3, 8] [nM] | IC50 [4] [nM] | HepG2 cytoxicity (Pf FGAA screen) [5] [µM] | Is compound selective in assay? Pf FGAA active? [6] |
| --- | --- | --- | --- | --- | --- | --- | --- | --- | --- | --- | --- | --- |
| Cc1ccnc(NC(c2cccc(Cl)c2Cl)c2ccc3cccnc3c2O)c1 (stereo not shown) [TCMDC-123997] | 1990 | 2.88 | 24.29 | 2880 | 0 (0: NO) | 48.46 | 53.18 | 3500 | 3500 | 1910 | 45.69 | 1 (1: YES) |
| Cc1ccc(-n2c(Sc3ncnc4sccc34)nnc2N2CCCC2)cc1 [TCMDC-125247] | 275 | 74.13 | 81.63 | 74100 | 1 (1: YES) | 123.83 | 128.92 | 220 | 222 | 490 | 89.13 | 1 (1: YES) |
| O=C(Nc1nc(-c2ccccn2)cs1)c1ccc(S(=O)(=O)N2CCc3ccccc32)cc1 [TCMDC-125432] | 3850 | 4.22 | 16.72 | 4220 | 0 (0: NO) | 17.85 | 54.79 | 2400 | 2400 | 1070 | 29.22 | 1 (1: YES) |
| Oc1c(C(Nc2nc3ccccc3s2)c2ccccc2)ccc2cccnc12 (stereo not shown) [TCMDC-125565] | 2390 | 2.34 | 2.34 | 2340 | 0 (0: NO) | 27.85 | 50.32 | 4000 | 4000 | 3030 |  | 0 (0: NO) |
| CCCC(N)C(=O)NC1CCN(c2c(F)c(N)c3c(=O)c(C(=O)O)cn4c3c2Oc2ccccc2-4)C1.Cl (stereo not shown) [TCMDC-125701] | 56 | 3.63 | 2.62 | 3630 | 0 (0: NO) | 70.26 | 78.60 |  | 900 | 1140 | 1.61 | 0 (0: NO) |
| COc1ccc2nc3cc(Cl)ccc3c(N)c2c1.Cl [TCMDC-125835] | 29 | 6.17 | 3.87 | 6170 | 0 (0: NO) | 74.62 | 77.49 | 6320 | 6320 | 670 | 1.57 | 0 (0: NO) |
| Cc1cc(Nc2ncc(C#N)c(Nc3ccccc3C(N)=O)n2)ccc1N1CCN(C)CC1.Cl [TCMDC-134115] | 7 | 3.98 | 2.19 | 3980 | 1 (1: YES) | 100.09 | 101.70 | 21.4 | 21 | 1670 | 0.40 | 0 (0: NO) |
| Cc1cccc(Nc2nc(N[C@@H]3CCCNC3)nc3cc[nH]c(=O)c23)c1.O=C(O)C(F)(F)F [TCMDC-134835] | 255 | 4.57 | 3.91 | 4570 | 0 (0: NO) | 88.28 | 77.31 | 890 | 889 | 1850 | 3.25 | 0 (0: NO) |
| Nc1nc(N)c2c(ccc3c2ccn3Cc2cccc(F)c2)n1 [TCMDC-137810] | < 0.2 | 0.17 | 0.11 | 170 | 0 (0: NO) | 49.99 | 58.69 | 360 | 359 | 1420 | 0.06 | 0 (0: NO) |
